Holding throughout (format): functional, cell-based
The subject of experiment [1] is A549. The experiment can be described thus: Cytotoxicity against human A549 cells after 3 days. As to conditions: A549, 72 h.
In experiment [2] the test system is HT-29. The experiment can be described thus: Cytotoxicity against human HT-29 cells after 3 days. Conditions: HT-29, 72 h.
In experiment [3] the test system is SK-MEL-28. The experiment can be described thus: Cytotoxicity against human SK-MEL-28 cells after 3 days. Conditions: SK-MEL-28, 72 h.
The subject of experiment [4] is P388. The experiment can be described thus: Cytotoxicity against mouse P388 cells after 3 days. As to conditions: P388, 72 h.

As a reminder, the IC50 is the concentration at which inhibition is half-maximal. A higher IC50 goes with a need for much substance. Regarding `CC1=C(CC[C@@H]2[C@H](C)CC[C@@H]3OC(C)(C)C(=O)CC[C@]32C)[C@@]2(C)CC[C@@H](O)C(C)(C)[C@@H]2CC1=O` [SODWANONE H], the IC50 in experiment [1] turned out to be 0.02 µM; in experiment [2], 10.5 µM; in experiment [3], 10.5 µM; in experiment [4], 10.5 µM.
For `CC(C)C(=O)CC[C@@]1(C)[C@H]2CC[C@H](C)[C@]1(CC[C@@]1(C)[C@@H](C)CC[C@@H]3OC(C)(C)[C@]4(O)CC[C@@]31O4)O2` [SODWANONE I], the concentration for half-maximal inhibition (IC50) in experiment [1], in experiment [2], in experiment [3] and in experiment [4] was 20 µM throughout.
In the case of `CC1=C(CC[C@@H]2[C@@]3(CC[C@@H]4OC(C)(C)C(=O)CC[C@]42C)CO3)[C@@]2(C)CCC(=O)C(C)(C)C2=C(O)C1=O` [SODWANONE G], the concentration for half-maximal inhibition (IC50) in experiment [1] came out at 0.2 µM; in experiment [2], 2 µM; in experiment [3], 2 µM; in experiment [4], 2 µM.
